Source: patent publication US20110152166A1, “METHOD OF MODULATION OF PROTEIN PHOSPHORYLATION-DEPENDENT CONFORMATIONAL TRANSITIONS WITH LOW MOLECULAR WEIGHT COMPOUNDS” (priority 2006, published 2011)
Changes are numbered by the printed parent chain. Ends that are not written are not given here.

How the values were obtained:
Assay in all cases: PDK1 activity assay with T308tide
Format in all cases: biochemical
[1] = molecular target: T1, GST-PDK1 [Arg131Lys] (Homo sapiens, UniProt O15530, R131K)
T1 construct: different protein constructs, comprising the full length protein or the catalytic domain alone; made in house; host or cells: HEK293 cells (pEBG-2T-PDK1 mutant)
T1 sequence (O15530 1-556 R131K): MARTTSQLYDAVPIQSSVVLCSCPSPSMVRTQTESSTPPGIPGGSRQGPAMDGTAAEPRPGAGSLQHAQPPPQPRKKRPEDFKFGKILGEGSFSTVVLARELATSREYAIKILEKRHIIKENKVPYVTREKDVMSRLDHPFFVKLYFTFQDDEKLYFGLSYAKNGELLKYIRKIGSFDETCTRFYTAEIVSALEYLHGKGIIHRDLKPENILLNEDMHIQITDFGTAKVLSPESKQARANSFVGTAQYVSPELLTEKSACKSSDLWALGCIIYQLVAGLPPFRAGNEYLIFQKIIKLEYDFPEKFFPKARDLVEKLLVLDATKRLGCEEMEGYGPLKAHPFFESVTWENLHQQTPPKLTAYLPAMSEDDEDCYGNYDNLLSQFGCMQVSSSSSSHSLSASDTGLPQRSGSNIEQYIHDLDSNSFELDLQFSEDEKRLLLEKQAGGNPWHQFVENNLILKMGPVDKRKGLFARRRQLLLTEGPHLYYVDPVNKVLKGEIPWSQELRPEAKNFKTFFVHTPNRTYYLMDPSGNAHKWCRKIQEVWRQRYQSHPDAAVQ

[2] = molecular target: T2, GST-PDK1 [Leu155Glu] (Homo sapiens, UniProt O15530, L155E); conditions: for AC50: GST-PDK1 [Leu155Glu]
T2 construct: different protein constructs, comprising the full length protein or the catalytic domain alone; made in house; host or cells: HEK293 cells (pEBG-2T-PDK1 mutant)
T2 sequence (O15530 1-556 L155E): T1 sequence (O15530 1-556 R131K) with K131R, L155E

[3] = molecular target: T3, GST-PDK1 [Leu155Ser] (Homo sapiens, UniProt O15530, L155S); conditions: for AC50: GST-PDK1 [Leu155Ser]
T3 construct: different protein constructs, comprising the full length protein or the catalytic domain alone; made in house; host or cells: HEK293 cells (pEBG-2T-PDK1 mutant)
T3 sequence (O15530 1-556 L155S): T1 sequence (O15530 1-556 R131K) with K131R, L155S

AC50 [1]	Max. activity [1]	AC50 [2]	activation of PDK1 mutant (in words) ([2]; Leu155 replaced with Glu, constitutively active)	AC50 [3]	activation of PDK1 mutant (in words) ([3]; Leu155 replaced with Ser, constitutively active)	Compound
51 ± 15 µM	1.13 ± 0.09 U/mg	No Effect	could not be further activated	No Effect	could not be further activated	O=C(O)CSC(CC(=O)c1ccc(Cl)cc1)c1ccccc1 (stereo not shown) [Compound 1]
0.13 ± 0.02 µM	0.77 ± 0.02 U/mg	No Effect	–	No Effect	–	REPRILSEEEQEMFRDFDYIADWC [PIFtide, reference compound]
